Data published in patent publication US20040019188A1, “Targeting through integrins” (priority 2000, published 2004).

Legend:
[1] = system: HEp-2 cells; assay: Competitive inhibition of HEp-2 cell attachment to (SPKR)4inv coated wells; format: cell-based, human; conditions: wells coated with (SPKR)4inv
Description: (§1) Cells were harvested with trypsin-EDTA and resuspended in medium containing soybean trypsin inhibitor. After centrifugation, the cell pellet was resuspended in medium containing 20 mM HEPES pH 7.5, 4 g/l BSA. For inhibition studies, 3×10^4 cells were incubated with increasing concentrations of SPKR4-inv protein for 30 min at 22° C.

[2] = system: HEp-2 cells; assay: Competitive inhibition of HEp-2 cell attachment to fibronectin coated wells; format: cell-based, human
Description: as §1

Substance | ID30 (concentration of competitor that results in 30% inhibition of cell attachment) [1] | ID30 compared with (SPKR)4inv ([2]; fibronectin coated wells) | ID30 (concentration of competitor that results in 30% inhibition of cell attachment) ([2]; wells coated with fibronectin)
A3β1: Recombinant soluble α3β1 integrin (Eble, 1998) | 0.050 µM | – | –
RGDS | 170 µM | three orders of magnitude higher | 170 µM
